# US10617662B2, “Autophagy activation-induced compound for improving skin inflammation for aging” (INCOSPHARM CORPORATION, priority 2017, dated 2020)
# Columns and labels:
# [1] = system: OASL (2′-5′-Oligoadenylate Synthetase Like); experiment: RT-PCR of psoriasis-related gene OASL; type: cell-based, human; conditions: HEKa cells, 20 uM, FIGS. 2 and 3
# Procedure: (§1) A psoriasis-related genes were selected from the cDNA array result in which Compound 8 of the present invention was treated in HaCaT cells. In order to analyze whether Compound 8 has an effect on psoriasis alleviation, RT-PCR analysis for IL-36′ (interleukin 36 gamma), KLK7 (Kallikrein-related peptidase 7), OASL (2′-5′-Oligoadenylate Synthetase Like) and ALOX12B (Arachidonate 12-lipoxygenase, 12R type) which are very closely related to psoriasis was carried out. Further, KRT16 (Keratin 16), KRT6 (Keratin 6) and KRT1 (Keratin 1), known as psoriasis-related proliferation, differentiation markers were confirmed by a western blot analysis. As the specific experimental method, HEKa cells (Human Epidermal keratinocytes, adult), human-derived epidermal keratinocytes were seeded on a 24 well plate at a density of 1×10^5 cells, and cultured in an EpiLife medium (1× Human keratinocyte Growth supplement, 1× antibiotics) in an incubator under 37° C. and 5% CO2 for 24 hours. […]
# [2] = system: STAT3 (Signal transducer and activator of transcription 3); experiment: Expression of psoriasis-related transcription factor STAT3 in induced inflammatory condition; type: cell-based, human; conditions: IL-17A/TNFα- or IL-17A/IFNγ-induced inflammatory condition
# [3] = system: psoriasis animal model induced by imiquimod 5% cream; experiment: Psoriasis animal model, transepidermal water loss (TEWL); type: in vivo, BALB/c mice; conditions: increased by 5% imiquimod; applied for 5 days, 0.5% in ethanol or 0.5% cream; FIG. 17
# Procedure: In order to confirm the psoriasis treatment effect by Compound 8 of the present invention, dorsal hair of 8-week-old BALB/c mice (female) was removed using hair removal cream (Veet®, Oxy Reckitt Benckiser, Cedex, France), and subsequently imiquimod 5% cream (Aldara®; 3M Pharmaceuticals, UK; 62.5 mg) was applied on the back and both ears of the mice twice in the morning and in the afternoon (Sensitization; Day 0). Then, after a barrier recovery period of 2 days, imiquimod 5% cream (62.5 mg/day) was applied repeatedly for 7 days (Induction stage; Day 2 -Day 8), thereby inducing the psoriasis animal model.
# After inducing the psoriasis animal model, Compound 8 of the present invention dissolved in ethanol (0.5%) and cream containing Compound 8 of the present invention (The same composition as that of the cosmetic composition of Example 14 except that it contained 0.5% by weight of Compound 8) were applied on the back once in the morning for 5 days (Treatment Stage; Day 8-Day 12). An untreated control group and a disease control group (vehicle) were treated with cream not containing Compound 8 of the present invention (cosmetic composition of Comparative Example 2) and ethanol, and during the treatment period, imiquimod 5% cream was applied thereon every other day, thereby maintaining psoriasis. […]
# IL-8 (interleukin 8) = experiment: ELISA for IL-8 in HEKa cells under inflammatory condition; type: cell-based, human; conditions: TNF-α/IFN-γ or IL-17A/IL-22 induced inflammatory condition, 10·M, FIGS. 5 to 7
# Procedure: In order to analyze whether treatment of Compound 8 has an atopy alleviation effect, ELISA (enzyme-linked immunosorbent assay) for IL-6 (interleukin 6) and IL-8 (interleukin 8) which are very closely related to atopic inflammation and psoriasis was performed.
# As the specific experimental method, HEKa cells (Human Epidermal keratinocytes, adult), human-derived epidermal keratinocytes were seeded on a 24 well plate at a density of 1×10^5 cells, and cultured in an EpiLife medium (1× Human keratinocyte Growth supplement, 1× antibiotics) in an incubator under 37° C. and 5% CO2 for 24 hours.
# After culturing, while an inflammatory condition was induced by treatment with either TNF-α (Tumor necrosis factor-α)/IFN-γ (interferon-γ) or IL-17A (interleukin-17A)/IL-22 (interleukin-22) in each well, further treatment was performed with Compound 8 of the present invention at a concentration of 10·M, and then the cells were incubated for a certain period. After completing culturing, media were collected, and then ELISA for each IL-6 and IL-8 was carried out.
# IL-20 (interleukin-20) = experiment: Cytokine gene expression, IL-20, TNFα/IFN-γ induced inflammatory condition; type: cell-based, human; conditions: FIG. 8
# KRT6 (Keratin 6) = experiment: Western blot of proliferative marker KRT6; type: cell-based, human; conditions: FIG. 4
# Procedure: as §1
# [4] = system: KLK7 (Kallikrein-related peptidase 7); experiment: RT-PCR of psoriasis-related gene KLK7; type: cell-based, human; conditions: HEKa cells, 20 uM, FIGS. 2 and 3
# Procedure: as §1
# KRT1 (Keratin 1) = experiment: Western blot of differentiation marker KRT1; type: cell-based, human; conditions: FIG. 4
# Procedure: as §1
# Beclin-1 = experiment: Western blot for Beclin-1 protein; type: cell-based, human; conditions: HaCaT cells; 20 uM dilution, 1 ml added to 1 ml medium; FIG. 1
# Procedure: In order to analyze which gene expression is related to increased autophagy activation by Compound 8 of the present invention, a western blot analysis for Beclin-1 and ULK-1 (Serine/threonine-protein kinase-1) proteins which are closely related to autophagy activation was performed.
# As a specific experimental method, HaCaT cells, human-derived keratinocytes were seeded on a 60Ø dish at a density of 3×10^5 cells, and cultured in DMEM (Dulbecco's Modified Eagle Media, Gibco BRL) in an incubator under 37° C. and 5% CO2 for 24 hours. Compound 8 of the present invention was dissolved in DMSO at a concentration of 10 mM each to be a concentrate, and diluted with a medium to be at a concentration of 20 uM. Then in a state where 1 ml of medium was first in each well, 1 ml of each diluted solution was added thereto for treatment, and cultured for a certain period, and after completing the culturing, the medium was removed, and then cells were disrupted with a SDS sample buffer, and each protein was separated by SDS-PAGE gel electrophoresis, and transferred to a PVDF membrane. […]
# [5] = system: CXCL2 (Chemokine (C-X-C motif) ligand 2); experiment: Cytokine gene expression, CXCL2, TNFα/IFN-γ induced inflammatory condition; type: cell-based, human; conditions: FIG. 8
compound,measurement,setting,value
CCCCCCCCCCCCCCCC(=O)NCCCC[C@H](NC(=O)[C@H](CCCCN(CC(=O)O)CC(=O)O)N(CC(=O)O)CC(=O)O)C(=O)O [Compound 8],expression level of OASL gene,[1],significantly decreased
same,expression level of STAT3,[2],reduced
same,TEWL value,[3],remarkably reduced
same,secretion of IL-8,IL-8 (interleukin 8),significantly reduced
same,expression level of IL-20,IL-20 (interleukin-20),reduced
same,KRT6 (proliferative marker) level,KRT6 (Keratin 6),reduced
same,expression level of KLK7 gene,[4],significantly decreased
same,KRT1 (differentiation marker) level,KRT1 (Keratin 1),increased
same,expression of Beclin-1 protein,Beclin-1,significantly increased
same,expression level of CXCL2,[5],reduced
